Results as given in patent US9549906B2, “Compositions and methods for treatment of ocular inflammation and/or pain” (priority 2013, dated 2017).
“Also recorded” adds a separate entry of the source.

Key:
[1] = tested on: endotoxin-induced uveitis (EIU) model; experiment: Endotoxin-induced uveitis (EIU) in rats, intravital microscopy of leukocyte-endothelial adhesion; assay type: in vivo, male Lewis rats
Procedure: The endotoxin-induced uveitis (EIU) model is a widely used animal model of human bacterially-derived uveitis, involving inflammation of the uveal tract. The uveal tract comprises the middle layer of the eye, including the iris, ciliary body and […].
EIU was induced in male Lewis rats by intravitreal injection of 100 ng of lipopolysaccharide (LPS, Escherichia coli) in saline. Treatments of the cannabinoid 2 receptor (CB2R) agonist, HU-433 were administered, in the presence and absence of the selective antagonist, AM630. Cannabinoid treatments involved intravenous (i.v.) HU-433 (0.001-1 mg/kg), AM630 (2.5 mg/kg i.v.) and AM630+HU-433, administered 15 minutes after intravitreal injection of LPS. Intravital microscopy (IVM) was used to observe leukocyte-endothelial adhesion each hour after induction of EIU for a duration of 6 hours.
Data in FIG. 1 was collected from experiments using an animal model of ocular inflammation called endotoxin-induced uveitis. […] The level of inflammation is quantified by counting the number of adherent leukocytes in the iris microcirculation. Leukocytes must adhere to the microvasculature for more than 30 s (measured as adherent leukocytes per mm^2). Imaging was conducted in a minimum of 4 quadrants within the eye, 4 vessels each quadrant, 6 hours after inflammation was induced.
The strain of animals chosen for these experiments was based on preliminary testing conducted and published literature (see, for example: Toguri et al., 2014). The strain of mice chosen was BALB/c and Lewis rats were used. Animals were anesthetised prior to induction of uveitis. Mice were anesthetized with 5% isoflurane in 100% oxygen. Rats were anesthetized with 65 mg·kg^−1 of sodium pentobarbital. Depth of anesthesia was monitored via toe pinch test. The head of the animal was immobilized, and the sclera of the left eye was punctured with a 30-gauge needle at the dorsonasal quadrant at approximately the level of the equator. Mice received a total of 250 ng of LPS (E. coli 026:B6; Sigma-Aldrich, Oakville, ON, Canada) in 2 μl of sterile 0.9% saline. Rats received a total of 100 ng of LPS in 5 μl of sterile 0.9% saline. Intravitreal injections were made under microscopic control with a Hamilton syringe (Hamilton Company, Reno, Nev., USA), with a 30 G1/6 needle. To avoid touching the lens or causing any damage to the eye, the tip of the needle was directed towards the posterior pole and only the bevelled tip (2-3 mm) entered the vitreal cavity. The needle was held in place after injection for 5 seconds to avoid leakage of the LPS from the site of injection (sclerostomy). Sclerostomy was closed by tissue adhesive to prevent any leakage. Animals with bleeding or swelling post injection were excluded from the study.

[2] = tested on: corneal hypersensitivity to capsaicin; experiment: Corneal hyperalgesia model (silver nitrate cauterization), blinks to topical 1 μM capsaicin; assay type: in vivo, murine
Excerpt: The chemical cauterization model of corneal inflammation and hyperalgesia is an established model to look at corneal sensitization and pain. Chemical cauterization of the murine cornea using topical silver nitrate produces non-specific inflammation followed by chronic behavioral sensitization to subsequent chemical stimuli (modified from Wenk & Honda, 2003).
The corneal reflex blink test provides a behavioral assessment of corneal sensitization and hyperalgesia (decreased pain threshold). The hyperalgesia (defined as increased responsiveness to painful stimuli) is gauged by quantifying the number and frequency of a protective blinking response in the treated eye (stimulus-induced blinking) relative to control non-sensitized eyes (Wenk and Honda 2003). Anti-inflammatory agents and agents that act at targets on nociceptive nerves can reduce development of corneal sensitization and hyperalgesic activity (reduced protective blinking response in response to noxious irritant).
Using a model characterized by Wenk & Honda, 2003, chemical cauterization using silver nitrate application to the cornea was used to create a corneal hypersensitivity model. Hypersensitivity was determined by assessing blinks to an ocular topical application of 1 μM capsaicin. The blink response is one measure of the level of corneal hyperalgesia. Increased blinking in response to capsaicin in a cauterized eye indicates a higher level of pain (FIG. 9).
In a model of corneal hyperalgesia, chemical cauterization of the cornea produces corneal epithelial damage, corneal edema and inflammation. […] The effect of repeated dosing with the CB2 allosteric modulator, CBD-DMH, or the cannabinoid Δ^9THC that acts as an agonist at CB1 and CB2 receptors, was tested to determine if these agents could prevent the development of hyperalgesia. Animals were videoed before and after capsaicin administration using a handheld device and video images were analyzed off-line by an observer blinded to the treatment. […]

[3] = cited from earlier work; for stability: acidic solutions, heat, air and light
CB2 [4] = biological target: T1, CB2 (Homo sapiens, UniProt P34972); experiment: In vitro CB2-dependent G protein signalling, overall conclusion (ERK, PLCβ3, cAMP); assay type: cell-based; parameters: expressed in transfected cells; host or cells: HEK 293A cells (transient transfection)
Procedure: Following 30 min treatment cells were lysed and cAMP activity was measured at 405 nm (RLU, relative light units). Concentration-response curves were fit using non-linear regression analysis (GraphPad Prism, version 5.0).

CB2 [5] = biological target: T1, CB2; experiment: In-Cell western, PLCβ3 phosphorylation (Gαq) in HEK 293A cells transfected with hCB2; assay type: cell-based; parameters: expressed in transfected cells; conditions: HEK293-A; percentage of the maximal response to the agonist CP 55,940; read-out: Emax (%) ± SEM, PLCβ3 (Gαq)
Procedure: HEK cells were maintained at 37° C., 5% CO2 in Dulbecco's Modified Eagle's Medium (DMEM) supplemented with 10% Fetal Bovine Serum (FBS) and 10^4 U·mL^−1 Pen/Strep.
For In-Cell™ western analyses, cells were fixed for 10 min at room temperature with 4% paraformaldehyde and washed three times with 0.1 M PBS for 5 min each. Cells were incubated with blocking solution (0.1 M PBS, 5% normal goat serum, 0.3% TritonX-100, in dH2O) for 1 h at room temperature. Cells were treated with primary antibody diluted in antibody dilution buffer [0.1 M PBS, 1% (w/v) BSA, 0.3% TritonX-100, in dH2O] overnight at 4° C. Primary antibody solutions were: pERK1/2(Tyr205/185) (1:200), ERK1/2 (1:200), pPLCβ3(S537) (1:500), PLCβ3 (1:1000), or β-actin (1:2000; Santa Cruz Biotechnology). Cells were washed three times with 0.1 M PBS for 5 min each. Cells were then incubated in IR^CW800dye (1:500; Rockland Immunochemicals, Gilbertsville, Pa., USA) for 1 h at room temperature. Cells were washed three times with 0.1 M PBS for 5 min each. Cells were allowed to air-dry overnight.
In-Cell™ data were collected using the Odyssey Imaging system and software (version 3.0; Li-Cor, Lincoln, Nebr., USA).
Goodness of fit to non-linear regression models was tested in GraphPad (v. 5.0, Prism). […]

[6] = tested on: endotoxin-induced uveitis (EIU) model; experiment: LPS-induced uveitis (EIU) in mice, intravital microscopy of adherent leukocytes; assay type: in vivo, BALB/c Mice; conditions: CBD-DMH 10 mg/kg i.v. once right after intravitreal LPS; IVM at 5 hours
Procedure: Two different EIU experimental groups were examined in BALB/c Mice: • Group (A): Intravital microscopy (IVM) at 5 hours after intravitreal injection of saline (control) • Group (B): IVM at 5 hours after induction of EIU and i.v. administration of drug vehicle control (1 time, 0.2 mL 30% ethanol in saline right after intravitreal injection) • Group (C): IVM at 5 hours after induction of EIU and i.v. administration of cannabinoid (1 time, 0.2 mL 10 mg/kg CBD-DMH right after intravitreal injection).
The strain of animals chosen for these experiments was based on preliminary testing conducted and published literature (see, for example: Toguri et al., 2014). […] Depth of anesthesia was monitored via toe pinch test. […]
The technique of intravital microscopy (IVM) was used for in vivo investigation of leukocyte recruitment. The intravital fluorescence video microscope was focused on the iridial microcirculation, which allowed for imaging of the leukocyte-endothelial interactions. […] In each video, leukocyte recruitment was observed and recorded for 30 seconds each. […]
Several videos of each quadrant were recorded for 30 seconds. Leukocyte adhesion was the parameter analyzed. […] The number of adherent leukocytes within each vessel segment was calculated by measuring the diameter and length of vessel segment studied, assuming a cylindrical geometry of blood vessel. […]

dispase-induced PVR = experiment: Dispase model of proliferative vitreoretinopathy (PVR): clinical score, histopathology, Iba1 microglia; conditions: 10 mg/kg i.p. daily for 7 days
CB2 [7] = biological target: T1, CB2; conditions: cited from earlier work
[8] = tested on: experimental models of sepsis; experiment: Experimental models of sepsis; assay type: in vivo

T1 sequence (P34972 whole entry): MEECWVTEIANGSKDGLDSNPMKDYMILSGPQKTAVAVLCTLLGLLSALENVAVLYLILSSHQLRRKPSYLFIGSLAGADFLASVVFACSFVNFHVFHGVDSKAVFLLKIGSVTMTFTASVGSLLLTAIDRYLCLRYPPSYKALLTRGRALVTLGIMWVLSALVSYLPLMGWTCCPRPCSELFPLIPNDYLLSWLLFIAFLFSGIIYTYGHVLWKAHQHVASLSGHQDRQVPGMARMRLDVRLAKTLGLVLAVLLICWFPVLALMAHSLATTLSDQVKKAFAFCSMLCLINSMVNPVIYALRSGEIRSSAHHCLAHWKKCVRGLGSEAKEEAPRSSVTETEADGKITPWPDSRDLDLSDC

COc1ccc(C(=O)c2c(C)n(CCN3CCOCC3)c3cc(I)ccc23)cc1 [AM630, reference compound]
number of adherent leukocytes to the microvasculature, antagonist alone ([1]; AM630 2.5 mg/kg i.v. alone, p<0.01): significant increase
effect of CB2R antagonist pre-treatment on the agonist's decrease in leukocyte adhesion ([1]; AM630 2.5 mg/kg i.v. prior to CB2R agonist in EIU): abolished

C=C1CC/C=C(\C)CC[C@@H]2[C@@H]1CC2(C)C [Beta-C, β-caryophyllene]
corneal hyperalgesia ([2]; Beta-C, dose not given): appeared to also produce a reduction in hyperalgesia

C=C(C)[C@@H]1CCC(C)=C[C@H]1c1c(O)cc(CCCCC)cc1O [CBD, cannabidiol]
stability [3]: unstable in acidic solutions and when exposed to heat, air and light
water solubility [3]: poorly water-soluble
mode of action on CB2-dependent G protein signalling (CB2 [4]): partial agonist
Emax (CB2 [5]): 51.7 ± 7.04%

C=C(C)[C@@H]1CCC(C)=C[C@H]1c1c(O)cc(C(C)(C)CCCCCC)cc1O [CBD-DMH, cannabidiol-dimethylheptyl]
number of adherent leukocytes [6]: decrease in number of adherent leukocytes
mean number of blinks for 1 minute to 1 μM capsaicin ([2]; 6 hours post corneal insult, 3 doses topical 5% CBD-DMH, 1-way ANOVA p<0.05): statistically significant decrease in blinks compared to untreated and vehicle treated eyes
corneal hypersensitivity (blinks over 1 minute to 1 μM capsaicin) ([2]; unilateral cauterized eye, 3 doses ocular topical 5% CBD-DMH): eliminates this hypersensitivity; also recorded: reduces hypersensitivity in a comparable matter to ocular topical NSAID; also recorded: eliminated hypersensitivity to capsaicin
clinical score of PVR (scale 0-5) (dispase-induced PVR): significantly decreased
histological score of PVR (scale 0-4) (dispase-induced PVR): significantly decreased
potency relative to CBD (CB2 [7]; analgesic and anti-inflammatory effects in animal models): more than 10 fold
psychoactivity (CB2 [7]): non-psychotropic
activation of CB2 in the absence of the orthosteric agonist CP55940 (CB2 [4]): does not activate CB2
effect on potency and efficacy of the orthosteric CB2 agonist CP55940 (CB2 [4]): enhances the potency and efficacy
mode of action on CB2-dependent G protein signalling (CB2 [4]): positive allosteric modulator

CCCCCCC(C)(C)c1cc(OC)c(C2C=C(CO)C3CC2C3(C)C)c(OC)c1 (stereo not shown) [HU-433]
psychoactivity (CB2 [7]): no psychoactivity
potency relative to HU-308 (CB2 [7]; in vitro and in vivo systems): 2-3 orders of magnitude
number of adherent leukocytes in the iris microcirculation ([1]; HU-433 0.1 mg/kg i.v., 6 hours after intravitreal LPS, 0.1 mg/kg): significantly (p<0.05) reduce; also recorded: fewer adherent leukocytes
leukocyte-endothelial adhesion (inflammation) ([1]; HU-433 i.v. 0.01 and 0.1 mg/kg, 6 hours after induction of EIU): significantly (p<0.01) reduced
local release of inflammatory mediators ([1]; acute EIU): decreases local release of inflammatory mediators
potency in reducing ocular inflammation relative to HU-308 ([1]; experimental uveitis): more potent than HU-308
potency in mitigating inflammation relative to HU-308 [8]: more potent than HU-308

CCCCCc1cc(O)c2c(c1)OC(C)(C)[C@@H]1CCC(C)=C[C@@H]21 [THC]
stability [3]: unstable in acidic solutions and when exposed to heat, air and light
